# Where two headings read alike, the source gives them in different places.
# How the values were obtained:
# [1] = test system: VZV in MeWo or MRC5 cells; experiment: Viral qPCR assay VZV (V0/V1, V2/V3), EC50; assay type: cell-based
# How it was run: (§1)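 Infected cells added to compounds (10-point 3-fold series), ~72 h at 37 °C, then lysed; viral genomes by TaqMan qPCR against plasmid standard, normalized to PPIA in V0/V1 only, EC50 from 4-parameter fit. HCMV AD169, 0.05-0.1 pfu/cell, ± 50% FBS; VZV 0.04-0.1 pfu/cell; HSV-1 F 0.0005-0.004 pfu/cell.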
# [2] = test system: HCMV Strain AD169 in MRC-5 cells; experiment: Viral qPCR assay HCMV (V0/V1, V2/V3), EC50; assay type: cell-based
# How it was run: as §1
# [3] = target: T1, Human cytomegalovirus DNA polymerase (Human cytomegalovirus, UniProt P08546); experiment: HCMV polymerase assay (AlphaLISA, IC50); assay type: biochemical; conditions: polymerase assay of Example 190
# T1 construct: made in house; host or cells: SF21 insect cells (baculovirus vector)
# How it was run: (§2)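 Baculovirus-expressed polymerase (HCMV 0.2 nM, VZV 0.4 nM final) preincubated 30 min at room temperature with compound in pH 7.5 HEPES buffer; reaction started with 1.6 nM DIG-primer/template and nM dNTPs including biotin-dUTP, run 60 min at 37° C. Incorporation detected by AlphaLISA; IC50 from 4-parameter fit.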
# [4] = target: T2, varicella zoster virus DNA polymerase (Varicella-zoster virus, UniProt P09252); experiment: VZV polymerase assay (AlphaLISA, IC50); assay type: biochemical; conditions: polymerase assay of Example 190
# T2 construct: made in house; host or cells: SF21 insect cells (baculovirus vector)
# How it was run: as §2
# [5] = test system: HSV-1 Strain F in Vero or MRC5 cells; experiment: Viral qPCR assay HSV-1 (V0/V1, V2/V3), EC50; assay type: cell-based
# How it was run: as §1
# [6] = Human alphaherpesvirus 3, MRC5, MRC5 cells, 10%, read-out: VZV Cell (EC50) MRC5 10%
# [7] = Human alphaherpesvirus 3, MeWo, MEWO cells, 10%, read-out: VZV Cell (EC50) MEWO 10%
# [8] = Human betaherpesvirus 5, AD169, MRC5, viral qPCR assay of Example 191, read-out: HCMV Cell (EC50)
# [9] = Human alphaherpesvirus 1, MRC5, MRC5 cells, 10%, read-out: HSV1 Cell (EC50) MRC5 10%
# [10] = Human alphaherpesvirus 1, Vero, VERO cells, 10%, read-out: HSV1 Cell (EC50) VERO 10%
# T1 sequence (P08546 whole entry): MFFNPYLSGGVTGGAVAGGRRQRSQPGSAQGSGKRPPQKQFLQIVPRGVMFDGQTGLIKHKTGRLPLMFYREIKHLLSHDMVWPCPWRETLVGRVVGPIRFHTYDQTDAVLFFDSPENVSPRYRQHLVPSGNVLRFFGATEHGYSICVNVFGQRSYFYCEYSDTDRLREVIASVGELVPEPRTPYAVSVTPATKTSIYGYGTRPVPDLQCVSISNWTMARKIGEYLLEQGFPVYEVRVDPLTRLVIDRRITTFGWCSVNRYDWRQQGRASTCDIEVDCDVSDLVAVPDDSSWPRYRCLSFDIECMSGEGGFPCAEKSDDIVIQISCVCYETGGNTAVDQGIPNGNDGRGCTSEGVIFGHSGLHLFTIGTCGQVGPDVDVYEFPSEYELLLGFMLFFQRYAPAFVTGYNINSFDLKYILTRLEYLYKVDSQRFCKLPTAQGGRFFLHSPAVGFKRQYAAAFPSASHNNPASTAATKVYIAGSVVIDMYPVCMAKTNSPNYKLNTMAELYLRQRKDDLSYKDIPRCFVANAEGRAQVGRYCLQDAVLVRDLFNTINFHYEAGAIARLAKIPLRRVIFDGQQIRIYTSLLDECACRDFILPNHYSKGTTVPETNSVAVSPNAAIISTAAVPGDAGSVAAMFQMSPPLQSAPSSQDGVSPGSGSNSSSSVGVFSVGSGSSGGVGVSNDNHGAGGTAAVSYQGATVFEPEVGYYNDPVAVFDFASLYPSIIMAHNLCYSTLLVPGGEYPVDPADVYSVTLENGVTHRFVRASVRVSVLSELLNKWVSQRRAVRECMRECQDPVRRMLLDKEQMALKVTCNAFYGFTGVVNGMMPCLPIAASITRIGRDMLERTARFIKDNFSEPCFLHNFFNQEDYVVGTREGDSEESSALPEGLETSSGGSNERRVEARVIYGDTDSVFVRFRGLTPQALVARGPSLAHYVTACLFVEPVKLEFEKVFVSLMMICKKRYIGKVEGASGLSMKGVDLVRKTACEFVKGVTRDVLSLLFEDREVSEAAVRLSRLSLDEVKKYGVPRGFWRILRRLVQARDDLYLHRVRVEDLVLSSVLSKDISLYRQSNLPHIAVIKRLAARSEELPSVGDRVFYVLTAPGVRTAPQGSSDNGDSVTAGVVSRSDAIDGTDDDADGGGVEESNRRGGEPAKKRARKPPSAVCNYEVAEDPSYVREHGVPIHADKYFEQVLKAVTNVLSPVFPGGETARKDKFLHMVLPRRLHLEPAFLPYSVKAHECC
# T2 sequence (P09252 whole entry): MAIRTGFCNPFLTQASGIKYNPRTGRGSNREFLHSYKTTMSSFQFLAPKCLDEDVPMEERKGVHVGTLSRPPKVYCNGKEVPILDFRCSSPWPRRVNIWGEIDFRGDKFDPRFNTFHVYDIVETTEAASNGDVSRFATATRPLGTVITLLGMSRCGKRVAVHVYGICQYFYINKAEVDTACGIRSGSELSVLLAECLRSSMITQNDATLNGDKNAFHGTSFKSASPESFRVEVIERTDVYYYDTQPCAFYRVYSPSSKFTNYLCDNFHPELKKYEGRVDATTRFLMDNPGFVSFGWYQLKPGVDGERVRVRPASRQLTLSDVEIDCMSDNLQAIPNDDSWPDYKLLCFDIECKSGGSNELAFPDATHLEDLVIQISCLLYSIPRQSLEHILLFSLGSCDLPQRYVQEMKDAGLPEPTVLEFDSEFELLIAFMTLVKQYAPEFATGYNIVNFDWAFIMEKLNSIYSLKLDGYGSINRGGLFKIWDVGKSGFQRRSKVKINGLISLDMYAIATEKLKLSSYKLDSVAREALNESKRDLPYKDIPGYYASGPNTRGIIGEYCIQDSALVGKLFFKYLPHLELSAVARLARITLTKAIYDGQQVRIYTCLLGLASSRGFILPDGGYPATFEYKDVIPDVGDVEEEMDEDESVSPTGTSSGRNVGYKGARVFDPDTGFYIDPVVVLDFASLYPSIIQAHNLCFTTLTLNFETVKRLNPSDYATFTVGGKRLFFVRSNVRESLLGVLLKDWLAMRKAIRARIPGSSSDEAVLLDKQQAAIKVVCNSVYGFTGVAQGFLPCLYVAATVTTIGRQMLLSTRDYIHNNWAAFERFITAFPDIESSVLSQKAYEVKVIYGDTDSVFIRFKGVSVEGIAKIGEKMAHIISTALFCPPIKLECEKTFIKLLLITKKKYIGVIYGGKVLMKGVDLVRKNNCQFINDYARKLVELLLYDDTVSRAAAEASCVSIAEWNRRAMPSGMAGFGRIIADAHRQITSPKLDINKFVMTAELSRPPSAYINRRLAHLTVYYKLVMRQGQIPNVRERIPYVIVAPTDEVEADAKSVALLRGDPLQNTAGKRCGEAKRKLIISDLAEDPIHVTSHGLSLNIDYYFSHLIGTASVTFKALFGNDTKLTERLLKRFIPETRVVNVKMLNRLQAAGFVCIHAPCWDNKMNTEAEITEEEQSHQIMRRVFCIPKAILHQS
IC50 [3],IC50 [4],SMILES,"EC50 [1, 6]","EC50 [1, 7]","EC50 [2, 8]","EC50 [5, 9]","EC50 [5, 10]","EC50 ([1]; Human alphaherpesvirus 3, MeWo, read-out: VZV Cell (EC50) MEWO 10%)","EC50 ([2]; Human betaherpesvirus 5, AD169, MRC5, read-out: HCMV Cell (EC50))","EC50 ([5]; Human alphaherpesvirus 1, Vero, read-out: HSV1 Cell (EC50) VERO 10%)","EC50 ([1]; MRC5 cells, 10%, read-out: VZV Cell (EC50) MRC5 10%)","EC50 ([2]; viral qPCR assay of Example 191, read-out: HCMV Cell (EC50))","EC50 ([5]; VERO cells, 10%, read-out: HSV1 Cell (EC50) VERO 10%)"
0.0103 µM,0.00739 µM,O=C(NCc1ccc(Cl)cc1)c1cc(O[C@H]2CCN3C(=O)OC[C@@H]3C2)c(-c2cnn(C(F)F)c2)cn1 [Compound 3],0.17 µM,0.112 µM,0.18 µM,0.127 µM,0.0709 µM,–,–,–,–,–,–
0.00776 µM,≤ 0.000444 µM,Cc1cc(-c2cnc(C(=O)NCc3ccc(Cl)cc3)cc2O[C@H]2CCN3C(=O)OC[C@@H]3C2)on1 [Compound 150],0.144 µM,–,0.11 µM,0.0782 µM,–,–,–,–,–,–,–
0.0103 µM,0.00125 µM,Cc1nsc(-c2cnc(C(=O)NCc3ccc(Cl)cc3)cc2O[C@H]2CCN3C(=O)OC[C@@H]3C2)n1 [Compound 39],0.098 µM,–,0.0867 µM,0.0601 µM,–,–,–,–,–,–,–
0.016 µM,0.00902 µM,O=C(NCc1ccc([N+](=O)[O-])cc1)c1cc(O[C@H]2CCN3C(=O)OC[C@@H]3C2)c(-c2cnn(C(F)F)c2)cn1 [Compound 82],0.243 µM,–,0.0905 µM,0.125 µM,–,–,–,–,–,–,–
0.0801 µM,0.0417 µM,CN(C)CCn1cc(-c2cnc(C(=O)NCc3ccc(Cl)cc3)cc2O[C@H]2CCN3C(=O)OC[C@@H]3C2)cn1 (racemic) [Compound 10],–,0.375 µM,0.178 µM,–,1.36 µM,–,–,–,–,–,–
0.0377 µM,0.02 µM,O=C(NCc1ccc(Cl)cc1)c1cc(O[C@H]2CCN3C(=O)OC[C@@H]3C2)c(N2CC(F)C2)cn1 [Compound 125],0.72 µM,–,0.198 µM,0.531 µM,–,–,–,–,–,–,–
0.0832 µM,0.0317 µM,O=C(NCc1ccc(Cl)cc1)c1cc(O[C@H]2CCN3C(=O)OC[C@@H]3C2)c(CN2CCOCC2)cn1 [Compound 78],–,0.642 µM,0.446 µM,–,0.56 µM,–,–,–,–,–,–
0.117 µM,0.0278 µM,CC(=O)N1CCC(Oc2cc(C(=O)NCc3ccc(Cl)cc3)ncc2-c2cnn(C(F)F)c2)CC1 [Compound 70],–,0.298 µM,1.22 µM,–,0.43 µM,–,–,–,–,–,–
0.014 µM,0.0157 µM,Cn1cc(-c2cnc(C(=O)NCc3ccc(Cl)cc3F)cc2O[C@H]2CCN3C(=O)OC[C@@H]3C2)cn1 [Compound 97],–,0.0955 µM,0.101 µM,–,0.191 µM,–,–,–,–,–,–
0.0164 µM,0.00631 µM,CCc1noc(-c2cnc(C(=O)NCc3ccc(Cl)cc3)cc2O[C@H]2CCN3C(=O)OC[C@@H]3C2)n1 [Compound 149],0.269 µM,–,0.124 µM,0.125 µM,–,–,–,–,–,–,–
0.0116 µM,0.00653 µM,Cn1cnc(-c2cnc(C(=O)NCc3ccc(Cl)cc3)cc2O[C@H]2CCN3C(=O)OC[C@@H]3C2)c1 [Compound 38],–,0.0532 µM,0.0728 µM,≥ 80.2 µM,0.194 µM,–,–,–,–,–,–
0.0403 µM,0.0249 µM,"O=C(NCc1ccc(Cl)cc1)c1cc(O[C@H]2CCN3C(=O)OC[C@@H]3C2)c(C2CC2CO)cn1 (single isomer, unassigned) [Compound 156-1]",–,–,–,–,–,–,–,–,2.63 µM,1.28 µM,3.5 µM
0.0259 µM,0.0267 µM,N#Cc1ccc(CNC(=O)c2cc(O[C@H]3CCN4C(=O)OC[C@@H]4C3)c(-c3cnn(C(F)F)c3)cn2)c(F)c1 [Compound 84],0.345 µM,0.0668 µM,0.35 µM,0.463 µM,0.52 µM,–,–,–,–,–,–
0.0143 µM,0.0119 µM,C[C@H](NC(=O)c1cc(O[C@H]2CCN3C(=O)OC[C@@H]3C2)c(-c2cnn(C(F)F)c2)cn1)c1ccc(Cl)cc1 [Compound 81],0.307 µM,–,0.312 µM,0.153 µM,–,–,–,–,–,–,–

SMILES,IC50 [3],IC50 [4],"EC50 [1, 6]","EC50 [1, 7]","EC50 [2, 8]","EC50 [5, 9]","EC50 [5, 10]","EC50 ([1]; Human alphaherpesvirus 3, MeWo, read-out: VZV Cell (EC50) MEWO 10%)","EC50 ([2]; Human betaherpesvirus 5, AD169, MRC5, read-out: HCMV Cell (EC50))","EC50 ([5]; Human alphaherpesvirus 1, Vero, read-out: HSV1 Cell (EC50) VERO 10%)","EC50 ([1]; MRC5 cells, 10%, read-out: VZV Cell (EC50) MRC5 10%)","EC50 ([2]; viral qPCR assay of Example 191, read-out: HCMV Cell (EC50))","EC50 ([5]; VERO cells, 10%, read-out: HSV1 Cell (EC50) VERO 10%)"
COc1cnc(C(=O)NCc2ccc(Cl)cc2)cc1O[C@H]1CCN2C(=O)OC[C@@H]2C1 [Compound 129],0.054 µM,0.018 µM,–,–,–,–,–,0.278 µM,0.546 µM,0.339 µM,–,–,–

# Reference: patent US20240067657A1, “AMIDO-SUBSTITUTED PYRIDYL COMPOUNDS AND METHODS OF USE THEREOF FOR THE TREATMENT OF HERPESVIRUSES” (Merck Sharp & Dohme LLC, priority 2020, published 2024)
